Experimental findings from patent EP0326331B1, “Substituted quinolines and cinnolines” (Dow AgroSciences LLC, priority 1988, dated 1989) are described below.

What all share (format): in vivo
Experiment [1] concerns Erysiphe graminis tritici (powdery mildew). In words: Test 1 greenhouse foliar spray screen, powdery mildew on wheat. The following applies: disease control rating, foliar spray on wheat, 400 ppm (+++ at 100 ppm).
Experiment [2] has as its system Pyricularia oryzae (rice blast). In words: whole plant or invertebrate. To be noted: disease control rating, foliar spray on rice, 400 ppm (+++ at 100 ppm).
In experiment [3] the test system is Puccinia recondita tritici (leaf rust). In words: Test 1 greenhouse foliar spray screen, leaf rust on wheat. To be noted: disease control rating, foliar spray on wheat, 400 ppm (+++ at 100 ppm).
In experiment [4] the test system is Botrytis cinerea (gray mold). In words: Test 1 greenhouse foliar spray screen, gray mold on grape berries. The following applies: disease control rating, spray on grape berries, 400 ppm (+++ at 100 ppm).
Experiment [5] concerns Pseudoperonospora cubensis (downy mildew). In words: Test 1 greenhouse foliar spray screen, downy mildew on squash. The following applies: disease control rating, foliar spray on squash, 400 ppm (+++ at 100 ppm).
Experiment [6] concerns Venturia inaequalis (apple scab). In words: Test 1 greenhouse foliar spray screen, apple scab on apple seedling. To be noted: disease control rating, foliar spray on apple seedling, 400 ppm (+++ at 100 ppm).
Experiment [7] has as its system Septoria tritici (leaf blotch). In words: Test 1 greenhouse foliar spray screen, leaf blotch on wheat. The following applies: disease control rating, foliar spray on wheat, 400 ppm (+++ at 100 ppm).
Experiment [8] has as its system southern armyworm (Spodopetra eridania Cramer). In words: Mite/insect screen, SAW. To be noted: Spodoptera eridania, percent mortality; SAW, SM & MA RATE 200 PPM; read-out: SAW RESULTS %. The procedure, abridged:
(§1)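 Read-out: percent mortality after standard exposure periods. Test solutions were water dilutions of compound dissolved in acetone/alcohol (50:50) with emulsifier blends; leaves were sprayed to runoff on both surfaces and air-dried for one hour before exposure.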

The test system of experiment [9] is Twospotted spider mites (Tetranychus urticae Koch). In words: Mite/insect screen, SM. The following applies: Tetranychus urticae, percent mortality; SAW, SM & MA RATE 200 PPM; read-out: SM RESULTS %. The procedure, abridged:
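Foliar spray to runoff (10 psi), 1 h drying; aqueous dilutions from acetone/alcohol emulsifier stock. Mortality (%) after standard exposure.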

Experiment [10] has as its system melon aphids (Aphis gossypii Glover). In words: Mite/insect screen, MA. The following applies: Aphis gossypii, percent mortality; SAW, SM & MA RATE 200 PPM; read-out: MA RESULTS %. In a few lines:
as §1

The test system of experiment [11] is corn rootworm. In words: Mite/insect screen, CRW. To be noted: percent mortality; CRW RATE 12.00 PPM; read-out: CRW RESULTS %. The procedure, abridged:
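Read-out: % mortality after standard exposure. Formulation: acetone/alcohol (50:50) with emulsifiers at 23 g and 13 g per liter, water-diluted to final test levels.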

SMILES strings stand for the structures.

Regarding `Clc1ccc(CCNc2ccnc3ccccc23)cc1` [Example 20, N-[2-(4-chlorophenyl)ethyl]-4-quinolinamine], the “POWD MDEW” value in [1] is listed as “+ (20-89% control at 400 ppm)”. The “RICE BLAST” value in experiment [2] is on record as “+ (20-89% control at 400 ppm)”. The “LEAF RUST” value in experiment [3] is given as “+ (20-89% control at 400 ppm)”. Further, in experiment [4], the “GRAY MOLD” value is “- (0-19% control at 400 ppm)”. In addition, the “DOWN MDEW” value in [5] is “+++ (90-100% control at 100 ppm)”. Besides, the “APPL SCAB” value in [6] is “- (0-19% control at 400 ppm)”. The “LEAF BLOT” value in experiment [7] is “- (0-19% control at 400 ppm)”. Also, the mortality at 200 ppm in [8], in experiment [9] and in experiment [10] was 0% in each case. For the same compound, the mortality at 12 ppm in experiment [11] turned out to be 0%.

Turning to `CC(CNc1ccnc2ccccc12)c1ccccc1` (stereo not drawn) [Example 21, N-(2-phenylpropyl)-4-quinolinamine], in experiment [1], the “POWD MDEW” value is recorded as “+ (20-89% control at 400 ppm)”. The “RICE BLAST” value in experiment [2] is recorded as “+ (20-89% control at 400 ppm)”. Moreover, the “LEAF RUST” value in experiment [3] was “+ (20-89% control at 400 ppm)”. Moreover, the “GRAY MOLD” value in experiment [4] is given as “- (0-19% control at 400 ppm)”. The “DOWN MDEW” value in [5] is given as “++ (90-100% control at 400 ppm)”. Further, the “APPL SCAB” value in experiment [6] is “- (0-19% control at 400 ppm)”. In addition, in [7], the “LEAF BLOT” value is “- (0-19% control at 400 ppm)”. In addition, the mortality at 200 ppm in experiment [8], in [9] and in experiment [10] was 0% in each case. The mortality at 12 ppm in [11] came out at 0%.

`COc1ccc(CCNc2ccnc3ccccc23)cc1` [Example 22, N-[2-(4-methoxyphenyl)-ethyl]-4-quinolinamine]: the “POWD MDEW” value in [1] was “+ (20-89% control at 400 ppm)”. Moreover, in [2], the “RICE BLAST” value is listed as “+ (20-89% control at 400 ppm)”. Moreover, the “LEAF RUST” value in [3] is given as “+ (20-89% control at 400 ppm)”. Further, the “GRAY MOLD” value in experiment [4] is on record as “- (0-19% control at 400 ppm)”. Moreover, the “DOWN MDEW” value in experiment [5] is on record as “+++ (90-100% control at 100 ppm)”. Moreover, the “APPL SCAB” value in experiment [6] is listed as “- (0-19% control at 400 ppm)”. The “LEAF BLOT” value in experiment [7] is recorded as “- (0-19% control at 400 ppm)”. Moreover, the mortality at 200 ppm in [8], in experiment [9] and in [10] was 0% throughout. Further, the mortality at 12 ppm in experiment [11] stood at 0%.

Take `c1ccc(C(CNc2ccnc3ccccc23)c2ccccc2)cc1` [Example 23, N-(2,2-diphenylethyl)-4-quinolinamine]: the “POWD MDEW” value in experiment [1] is recorded as “+ (20-89% control at 400 ppm)”. For the same compound, the “RICE BLAST” value in [2] is listed as “+ (20-89% control at 400 ppm)”. Further, the “LEAF RUST” value in [3] is “+ (20-89% control at 400 ppm)”. The “GRAY MOLD” value in experiment [4] was “- (0-19% control at 400 ppm)”. Also, the “DOWN MDEW” value in [5] is “+++ (90-100% control at 100 ppm)”. Also, in experiment [6], the “APPL SCAB” value is listed as “- (0-19% control at 400 ppm)”. For the same compound, the “LEAF BLOT” value in experiment [7] is on record as “- (0-19% control at 400 ppm)”. In addition, the mortality at 200 ppm in [8], in experiment [9] and in experiment [10] was 0% throughout. Also, the mortality at 12 ppm in experiment [11] worked out at 0%.

For `CC(Cc1ccccc1)Nc1ccnc2ccccc12` (stereo not drawn) [Example 24, N-(1-methyl-2-phenylethyl)-4-quinolinamine], the “POWD MDEW” value in [1] is recorded as “+ (20-89% control at 400 ppm)”. Besides, the “RICE BLAST” value in [2] is recorded as “+ (20-89% control at 400 ppm)”. For the same compound, the “LEAF RUST” value in experiment [3] is listed as “+ (20-89% control at 400 ppm)”. Besides, the “GRAY MOLD” value in experiment [4] is listed as “- (0-19% control at 400 ppm)”. Besides, in [5], the “DOWN MDEW” value is recorded as “+++ (90-100% control at 100 ppm)”. For the same compound, the “APPL SCAB” value in experiment [6] is on record as “- (0-19% control at 400 ppm)”. In addition, in [7], the “LEAF BLOT” value was “- (0-19% control at 400 ppm)”. Moreover, the mortality at 200 ppm in experiment [8], in experiment [9] and in [10] was 0% in each case. For the same compound, in [11], the mortality at 12 ppm was determined as 0%.

For `Clc1cc(NCCc2ccccc2)c2ccccc2n1` [Example 25, 2-chloro-N-(2-phenylethyl)-4-quinolinamine], in experiment [1], the “POWD MDEW” value was “+ (20-89% control at 400 ppm)”. For the same compound, in [2], the “RICE BLAST” value is on record as “+ (20-89% control at 400 ppm)”. Further, the “LEAF RUST” value in experiment [3] is listed as “++ (90-100% control at 400 ppm)”. In addition, the “GRAY MOLD” value in experiment [4] is “- (0-19% control at 400 ppm)”. For the same compound, in [5], the “DOWN MDEW” value is listed as “+++ (90-100% control at 100 ppm)”. For the same compound, the “APPL SCAB” value in [6] was “- (0-19% control at 400 ppm)”. In addition, the “LEAF BLOT” value in [7] is reported as “- (0-19% control at 400 ppm)”. Besides, the mortality at 200 ppm in experiment [8], in [9] and in experiment [10] was 0% in each case. Further, the mortality at 12 ppm in experiment [11] stood at 0%.

Consider `OC(CNc1ccnc2ccccc12)c1ccccc1` (stereo not drawn) [Example 26, α-[(4-quinolinylamino)methyl]benzenemethanol], for which the “POWD MDEW” value in [1] is “+ (20-89% control at 400 ppm)”. Further, the “RICE BLAST” value in [2] is recorded as “+ (20-89% control at 400 ppm)”. In addition, in experiment [3], the “LEAF RUST” value is recorded as “- (0-19% control at 400 ppm)”. Moreover, in [4], the “GRAY MOLD” value was “- (0-19% control at 400 ppm)”. Also, the “DOWN MDEW” value in experiment [5] is recorded as “+++ (90-100% control at 100 ppm)”. Further, the “APPL SCAB” value in [6] is given as “- (0-19% control at 400 ppm)”. In addition, the “LEAF BLOT” value in [7] was “- (0-19% control at 400 ppm)”. Moreover, the mortality at 200 ppm in experiment [8], in [9] and in [10] was 0% each time. The mortality at 12 ppm in experiment [11] was determined as 0%.

With `Cc1cccc2c(NCCc3ccccc3)ccnc12` [Example 27, 8-methyl-N-(2-phenylethyl)-4-quinolinamine], the “POWD MDEW” value in experiment [1] was “+ (20-89% control at 400 ppm)”. Besides, in experiment [2], the “RICE BLAST” value was “++ (90-100% control at 400 ppm)”. Moreover, the “LEAF RUST” value in experiment [3] is recorded as “+ (20-89% control at 400 ppm)”. Moreover, in [4], the “GRAY MOLD” value is “- (0-19% control at 400 ppm)”. In addition, the “DOWN MDEW” value in experiment [5] is “+++ (90-100% control at 100 ppm)”. Moreover, the “APPL SCAB” value in [6] was “- (0-19% control at 400 ppm)”. Moreover, the “LEAF BLOT” value in experiment [7] was “- (0-19% control at 400 ppm)”. Moreover, the mortality at 200 ppm in experiment [8], in experiment [9] and in [10] was 0% each time. Also, the mortality at 12 ppm in [11] stood at 0%.

Turning to `Cc1cc(C)c2nccc(NCCc3ccccc3)c2c1` [Example 28, 6,8-dimethyl-N-(2-phenylethyl)-4-quinolinamine], the “POWD MDEW” value in [1] is reported as “+ (20-89% control at 400 ppm)”. Moreover, the “RICE BLAST” value in [2] is on record as “++ (90-100% control at 400 ppm)”. Further, the “LEAF RUST” value in [3] is recorded as “+ (20-89% control at 400 ppm)”. For the same compound, in [4], the “GRAY MOLD” value is “- (0-19% control at 400 ppm)”. Further, the “DOWN MDEW” value in experiment [5] is on record as “+++ (90-100% control at 100 ppm)”. For the same compound, the “APPL SCAB” value in experiment [6] was “- (0-19% control at 400 ppm)”. Also, the “LEAF BLOT” value in experiment [7] was “- (0-19% control at 400 ppm)”. In addition, the mortality at 200 ppm in experiment [8], in [9] and in experiment [10] was 0% each time. The mortality at 12 ppm in experiment [11] was 0%.
